Patent US9139485B2, “Plant treatment agent” (UNIVERSITI PUTRA MALAYSIA, priority 2011, dated 2015)
Marks after values point to notes of the source that are not given here.

Assays:
[1] = system: Hybrid no. 5 variety (Zea mays L.); assay: Greenhouse pot experiment: dry weight, N, P, K uptake and use efficiency of maize plant; type: in vivo; conditions: 56 days after planting
Protocol: A pot experiment was conducted in a greenhouse of Universiti Putra Malaysia Bintulu Sarawak Campus, Malaysia using randomized complete block design (RCBD) with three replications. Each pot size was 22×28 cm. Each was filled with 10 kg soil (based on bulk density of the soil). Hybrid no. 5 variety (Zea mays L.) was used as the test crop. Its N, P, and K requirement were 60 kg N, 60 kg P2O5 and 40 kg K2O (130 kg ha^−1 urea: 130 kg ha^−1 TSP: 67 kg ha^−1 KCl). The fertilizer requirement was scaled down to per pot basis equivalent to 2.02 g of urea, […]. The volume of water used for each pot was based on field capacity (70%). The three treatments devised for this experiment were as follows: • i. No fertilizer (T0) • ii. 2.02 g urea (T1) • iii. 2.02 g urea+7 L peat soil water (T2)
All treatments were applied on the 10th day after planting (DAP). However TSP and KCl which were common to all the treatments were applied on 10 DAP and 28 DAP. The plants were monitored until tassel stage. Tassel stage is the maximum growth stage for plants before they enter productive stage.
Harvesting was done on the 56th DAP. The whole plant including leaves and stem were harvested. The remaining roots in the soil were removed carefully. They were cleaned using tap and distilled water. The plant parts (leaves, stem and roots) were then oven-dried at 60° C. until constant weight was attained afterwhich they weighed using a digital balance. Soil samples were also taken from the pots, air-dried, pounded and sieved to a pass 2 mm before they were analyzed for pH, exchangeable cations (K, Mg, and Ca), total carbon, total N, available P, exchangeable ammonium and available nitrate, using standard procedures. Each plants part was ground and analyzed for total K, Mg, Ca, Na, N, and P.
Nitrogen, P and K uptake in leaves, stem and roots were determined by multiplying the concentration with the dry weight of the plant parts. Nitrogen, P and K use efficiency were determined by the formula of Pomares-Gracia and Pratt (1987).
Analysis of variance (ANOVA) was used to test the effect of treatments while means of treatments were compared using Duncan's Test. Statistical Analysis System (SAS Ver. 9.2) was used for the statistical analysis.

[2] = Selected chemical properties of peat soil water and urea; type: physicochemical; conditions: glass electrode
Protocol: Peat soil water (waste water) was collected from natural flows of peat water at Suai Miri Sarawak, Malaysia. The mineral soil used was Bekenu Series (Fine loamy, siliceous, isohyperthermic, red-yellow to yellow Tipik Tualemkuts). It was sampled in an undisturbed area of Universiti Putra Malaysia Bintulu Sarawak Campus, Malaysia using an auger. The soil taken at 0-15 cm depth was air dried and ground to pass 2.0 mm sieve for laboratory experiment. The soil texture was determined using the hydrometer method (Bouyoucos, 1962) and its field capacity and bulk density determined by the method described by Tan (2005). The pH of the soil was determined in a 1:2 soil:distilled water suspension and KCl using a glass electrode. However, the pH of the peat soil water was determined directly from filtered samples using a glass electrode. The soil total carbon, N and organic matter were determined using LECO CHNS Analyzer (Leco Truspec Micro Elemental Analyzer CHNS, New York). Soil available P was extracted using the double acid method (Tan, 2005) followed by blue method (Murphy and Riley, 1962). The Kjedhal method was used to determine total N. Exchangeable cations were extracted using leaching method and their concentrations were afterwards determined using followed Atomic Absorption Spectrometry (AAS). Soil CEC was determined by the leaching method followed by steam distillation.

pHw ([2]; listed as Urea): 8.00
pHw ([2]; listed as urea): basic
SMILES: NC(N)=O [Treatment T1, urea]
dry weight of maize plant, Leaves [1]: 6.00^b g plant^−1
dry weight of maize plant, Roots [1]: 3.18^b g plant^−1
dry weight of maize plant, Stems [1]: 5.71^d g plant^−1
dry weight of maize plant, Total [1]: 14.89^b g plant^−1
K use efficiency of maize plant ([1]; Leaves): 1.17^a %
N use efficiency of maize plant ([1]; Leaves): 1.26^a %
P use efficiency of maize plant ([1]; Leaves): 0.31^a %
K use efficiency of maize plant ([1]; Roots): 1.75^a %
N use efficiency of maize plant ([1]; Roots): 0.37^a %
P use efficiency of maize plant ([1]; Roots): 0.40^a %
K use efficiency of maize plant ([1]; Stem): 2.17^a %
N use efficiency of maize plant ([1]; Stem): 0.24^d %
P use efficiency of maize plant ([1]; Stem): 0.32^a %
K use efficiency of maize plant ([1]; Total): 5.09^a %
N use efficiency of maize plant ([1]; Total): 1.87^a %
P use efficiency of maize plant ([1]; Total): 1.03^a %
